In brackets after ≈: the same amount, converted by molar mass. Several values for one entry are separate records, joined by “and”; a condition that tells them apart may be missing. Equal entries are not always repeated. Entries after “also recorded” stand apart in the source; their conditions may differ.
Columns and labels:
STZ+HFD mice = STZ+HFD mice (modified STAM) NASH and liver fibrosis model; assay type: in vivo, mouse
Description: Mice were intraperitoneally injected with low-dose streptozotocin (40 mg/kg; 5 times) in 7-week-old mice. After injection with STZ, mice were fed an HFD for 16 weeks to induce NASH and liver fibrosis. After 16 weeks of an HFD, mice were fed a standard chow diet to mimic the NASH patient under […]
nine weeks by oral gavage (Reviewer-only data 4). […]
inflammation, hepatocyte ballooning, and total NAFLD activity score by the NASH CRN histological scoring system (Reviewer-only data 4B, C). […]
hepatic fibrosis stage similar to STZ+HFD mice treated with OCA (Reveiwer-only data 4D, E). STZ+HFD mice […]
function (Reviwer-only data 4F). […]
group (Reviewer-only data 4G). Furthermore, the expression of genes related to lipogenesis and fibrosis was reduced in the compound 11c-treated group in a dose-dependent manner (Reviewer-only data 4H, I). These […]
Reviewer-only Data 4. Compound 11c treatment with dietary modification ameliorates NASH and liver fibrosis in a dose-dependent manner. (A) Experimental scheme for in vivo efficacy of compound 11c in […]
(STZ+HFD mice. (B-I) STZ+HFD mice fed HFD for 16 weeks were switched to SCD for 9 weeks and were treated with vehicle, compound 11c, or OCA by daily oral gavage. (B) Representative liver histology by H&E staining […]
mg/kg. Scale bars, 100µm. […]
mice; n = 9 per group. (D) Representative liver histology by Masson’s trichrome staining from vehicle, […]
Scale bars, 100µm. (E) Fibrosis stage
(F) Serum AST and ALT levels; n = 9 per […]
group. (G) Serum TG levels and hepatic TG levels; n = 9 per group. (H) Relative mRNA expression of lipogenesis-related genes as assessed by qRT-PCR in the liver; n = 9 per group. (I) Relative mRNA expression of fibrosis-related genes as assessed by qRT-PCR in the liver; n = 9 per group. Data are expressed as the means ±SEM.
[…], **P<0.01, one-way ANOVA with post hoc Tukey’s test (C, E, F, G, H, I). […]
Representative liver histology by Masson’s trichrome staining and Sirius Red staining. Scale bars, 100µm. (E) […]
one-way ANOVA with post hoc Tukey’s test (C, E).
Comment 2: In "Methods", the author claims to use HEK293 cells (a type of cell derived from kidney embryos) for cell research, however, the data in Table 5 are the results of hepatocyte experiments. What happened? Response: We appreciate the Reviewer’s comment. HEK293 cells were used for inhibition assay (cell research), shown in Table 1-3 of the main manuscript, while, hepatic cell lines were used for chemical profiling and for “Hepatocyte stability” test, shown in Table 5 of the main manuscript. The “Selectivity” of Compound 11c for different 5HT subtypes is elucidated in response to Comment 6.
We have modified the Methods section to provide clarity.

[1] = Hepatocyte stability test, mouse; assay type: in vitro ADME; conditions: male, CD1, cryopreserved hepatocytes, pH 7.4, read-out: Hepatocyte stability (% remaining after 3 h)
Description: (§1) Hepatocyte incubations for the test compound (10 μM final concentration, n = 2 per each time point) were carried out in mouse, rat, dog, monkey and human cryopreserved hepatocytes, resuspended at a density of 0.5 million cells/ml of modified Krebs-Henseleit buffer (KHB). The information regarding the hepatocytes used in the experiment is as follows: liverPool® 10-donor mixed gender human (BioIVT, Cat.No. X008001, lot EAV), male cynomolgus monkey (BioIVT, Cat.No. M00305, lot COJ), male Beagle dog (BioIVT, Cat.No. M00205, lot USY), male Sprague Dawley rat (BioIVT, Cat.No. M00005, lot TQE) and male CD1 mouse (BioIVT, Cat.No.005052, lot LFF). In addition, the compound was also incubated with blank KHB. The final concentration of solvent (DMSO) was 0.1% of the final volume. The incubations were performed for 3 hours at 37°C and pH 7.4. Reactions were terminated at 0 and 180 minutes by the addition of 3 volumes of stop solution (acetonitrile/methanol (2:1, v/v) containing internal standard–diclofenac at 100 ng/ml). Samples (compound spiked buffer and compound spiked hepatocytes, as well as blank samples, i.e. hepatocytes with the same DMSO%) were then centrifuged and aliquots were transferred to 96-deep micronic tubes and frozen at -80 °C until LC-MS/MS analysis. […]

physchem = conditions: pH 6.8, aqueous buffer
in vitro [2] = conditions: mouse
in vitro [3] = conditions: mouse; remark: listed apart in the source
α-SMA = assay: CDAHFD mice: liver α-SMA RNA expression (qRT-PCR); assay type: in vivo, mouse; conditions: for Relative liver α-SMA expressions in mice, measured using quantitative RT-PCR: individual mice and Average
Excerpt: C57BL/6 J male mice were purchased from the Japan SLC. Inc (Hamamatsu, Japan). Mice (5 weeks old) were fed Teklad Certitied Irradiated Global 18% protein rodent diet purchased from Dooyeol Biotech Co. Ltd (Seoul, South Korea) during the acclimation period. The liver fibrosis/inflammation-induced groups were CDAHFD-fed (A06071302, Research diet). […]. […] All animal experiments complied with the relevant ethical regulations.
The frozen liver tissue was homogenized and put into QiAzol (Qiagen, Hilden) to isolate RNA, and 4 μg of RNA was synthesized into cDNA using the RevertAid First Strand cDNA synthesis kit (Thermo Fischer, Waltham). The expressions of mouse collagen I (Forward: 5’-TGTGTTCCCTACTCAGCCGTG-3’. Reverse: 5’-CATCGGTCATGCTCTCTCCAA-3’), mouse α-SMA (Forward:5’-TCCTGACGCTGAAGTATCCGAT-3’, Reverse: 5’-GGCCACACAAAGCTCGTTATAG-3’) and mouse 36B4 (Forward: 5’-ACCTCCTTCTTCCAGGCTTT-3’, Reverse: 5’-CTCCAGTCTTTATCAGCTGC-3’) as house-keeping gene were measured using ViiA 7 Real-time PCR system (Thermo Fischer scientific).

[4] = Hepatocyte stability test, rat; assay type: in vitro ADME; conditions: male, Sprague Dawley, cryopreserved hepatocytes, pH 7.4, read-out: Hepatocyte stability (% remaining after 3 h)
Description: as §1

Cc1nc2n(c(=O)c1CCN1CCC(=C3c4ccc(Cl)cc4CCc4cccnc43)CC1)CCCC2O (stereo not shown) [Compound 11c]
Hepatic triglyceride levels (STZ+HFD mice): reduced | plasma AST and ALT levels (STZ+HFD mice): decreased | fibrosis stage and total NAFLD activity score (STZ+HFD mice; 5 or 10 mg/kg daily oral gavage, nine weeks): effectively improved; also recorded: better than obeticholic acid | hepatic fibrosis stage (STZ+HFD mice; 11c 5 or 10 mg/kg, OCA 10 mg/kg): improvement | hepatic steatosis, lobular inflammation, hepatocyte ballooning, and total NAFLD activity score (STZ+HFD mice; NASH CRN scoring): improved | expression of genes related to lipogenesis and fibrosis (STZ+HFD mice; dose-dependent manner): reduced | remaining at 3 h, 10 μM [1]: 75% | solubility (physchem): 1300 µg/mL (≈ 2510 µM) | IC50 (in vitro [2]): > 100 µM | IC50 (in vitro [3]): > 100 µM | Relative liver α-SMA expressions in mice, measured using quantitative RT-PCR (α-SMA; CDAHFD+11c 5 mpk): 2.564 and 0.488 and 1.651 and 1.165 and 1.498 | Relative liver α-SMA expressions in mice, measured using quantitative RT-PCR (α-SMA; CDAHFD+11c 5 mpk, mean): 1.473 | Relative liver α-SMA expressions in mice, measured using quantitative RT-PCR (α-SMA; CDAHFD+11c 10mpk): 2.015 and 1.845 and 1.808 and 2.373 and 1.519 | Relative liver α-SMA expressions in mice, measured using quantitative RT-PCR (α-SMA; CDAHFD+11c 10mpk, mean): 1.912 | mRNA expression of α-SMA in liver tissue (α-SMA; CDAHFD-fed 11c vs CDAHFD-fed vehicle group): significantly decreased | remaining at 3 h, 10 μM [4]: 68.9%

Reference: publication PMC10799935, “Discovery of a peripheral 5HT2A antagonist as a clinical candidate for metabolic dysfunction-associated steatohepatitis” (Nature Communications, 2024)
